Reference: patent US9120785B2, “Pyridyl aminopyridines as Syk inhibitors” (Merck Sharp & Dohme Corp., priority 2011, dated 2015)
Read-outs that look alike come from different tables or passages of the source.

Target: recombinant human GST-Syk (Homo sapiens (Human), UniProt P43405)
Assay: Homogeneous Time-Resolved Fluorescence (HTRF) assay for the recombinant human Syk enzyme
Assay type: biochemical
Settings: recombinant human GST-Syk 5 pM, ATP 25 μM
Description: Homogeneous Time-Resolved Fluorescence (HTRF) Assay for the Recombinant Human Syk Enzyme:
A recombinant GST-hSyk fusion protein was used to measure potency of compounds to inhibit human Syk activity. The recombinant human GST-Syk ([…] #08-176) (5 pM final concentration) was incubated with various concentrations of the inhibitor diluted in DMSO (0.1% final concentration) for 10 minutes at room temperature in 15 mM Tris-HCl (pH 7.5), 0.01% tween 20, 2 mM DTT in 384 well plate format. To initiate the reaction the biotinylated substrate peptide (250 nM final concentration) that contains the phosphorylation site for Syk was added with magnesium (5 mM final concentration) and ATP (25 μM final concentration). Final volume of the reaction was 10 μL. Phosphorylation of the peptide was allowed to proceed for 45 minutes at room temperature. To quench the reaction and detect the phosphorylated product, 2 nM of a Europium-anti-phosphotyrosine antibody (Perkin Elmer #AD0161) and 70 nM SA-APC (Perkin-Elmer #CR130-100) were added together in 15 mM Tris pH 7.5, 40 mM EDTA, 0.01% tween 20. Final volume of the quenching solution was 10 μL. The resulting HTRF signal was measured after 30 minutes on an EnVision (Perkin-Elmer) reader using a time-resolved fluorescence protocol.

[1] = class symbols, read-out: rhSyk activity (IC50)
[2] = 10-dose titration, read-out: rhSyk (nM) IC50

In the case of CCC(O)(c1ncc(-c2cc(C)cc(Nc3cc(C4CC4)ccn3)n2)s1)[C@H]1CC[C@H](C(=O)O)CC1 (mixture of isomers) [Example 1, racemic, trans-4-[1-(5-{6-[(4-Cyclopropylpyridin-2-yl)amino]-4-methylpyridin-2-yl}-1,3-thiazol-2-yl)-1-hydroxypropyl]cyclohexanecarboxylic acid], the IC50 [1] is reported as ≤ 100 nM.

CCC(O)(c1ncc(-c2cc(C)cc(Nc3cc(C4CC4)ccn3)n2)s1)[C@H]1CC[C@H](C(N)=O)CC1 (mixture of isomers) [Example 2, racemic mixture, trans-4-[1-(5-{6-[(4-cyclopropylpyridin-2-yl)amino]-4-methylpyridin-2-yl}-1,3-thiazol-2-yl)-1-hydroxypropyl]cyclohexanecarboxamide] was tested, and the IC50 [2] was 3.1 nM and the IC50 [1] was ≤ 100 nM.

In the case of Cc1ccnc(Nc2cc(C)cc(-c3cnc(C(C)(O)[C@H]4CC[C@H](C(=O)O)CC4)s3)n2)c1 (relative stereo) [Example 14-1, trans-4-[1-hydroxy-1-(5-{4-methyl-6-[(4-methylpyridin-2-yl)amino]pyridin-2-yl}-1,3-thiazol-2-yl)ethyl]cyclohexanecarboxylic acid], the IC50 [1] is reported as ≤ 100 nM.

With COc1ccnc(Nc2cc(C)cc(-c3cnc(C(C)(O)[C@H]4CC[C@H](C(=O)O)CC4)s3)n2)c1 (relative stereo) [Example 14-3, trans-4-[1-hydroxy-1-(5-{6-[(4-methoxypyridin-2-yl)amino]-4-methylpyridin-2-yl}-1,3-thiazol-2-yl)ethyl]cyclohexanecarboxylic acid] the IC50 [1] was ≤ 100 nM.

In the case of Cc1cc(Nc2cc(C)c(Cl)cn2)nc(-c2cnc(C(C)(O)[C@H]3CC[C@H](C(=O)O)CC3)s2)c1 (relative stereo) [Example 14-5, trans-4-[1-(5-{6-[(5-chloro-4-methylpyridin-2-yl)amino]-4-methylpyridin-2-yl}-1,3-thiazol-2-yl)-1-hydroxyethyl]cyclohexanecarboxylic acid], the IC50 [1] is reported as ≤ 100 nM.

CCCCOC(=O)[C@H]1CC[C@H](C(C)(O)c2ncc(-c3cc(C)cc(Nc4cc(C5CC5)ccn4)n3)s2)CC1 (relative stereo) [Example 14-6, butyl trans-4-[1-(5-{6-[(4-cyclopropylpyridin-2-yl)amino]-4-methylpyridin-2-yl}-1,3-thiazol-2-yl)-1-hydroxyethyl]cyclohexanecarboxylate] showed an IC50 [1] of 100 to 1000 nM.

For Cc1cc(Nc2cc(C3CC3)ccn2)nc(-c2cnc(C(C)(O)[C@H]3CC[C@H](C(=O)O)CC3)s2)c1 (relative stereo) [Example 14-7, trans-4-[1-(5-{6-[(4-cyclopropylpyridin-2-yl)amino]-4-methylpyridin-2-yl}-1,3-thiazol-2-yl)-1-hydroxyethyl]cyclohexanecarboxylic acid], the IC50 [1] was ≤ 100 nM.

In the case of Cc1cc(Nc2cc(C(C)C)ccn2)nc(-c2cnc(C(C)(O)[C@H]3CC[C@H](C(=O)O)CC3)s2)c1 (relative stereo) [Example 14-8, trans-4-{1-hydroxy-1-[5-(4-methyl-6-{[4-(propan-2-yl)pyridin-2-yl]amino}pyridin-2-yl)-1,3-thiazol-2-yl]ethyl}cyclohexanecarboxylic acid], the IC50 [1] is reported as ≤ 100 nM.

With COC(=O)[C@H]1CC[C@H](C(O)c2ncc(-c3cc(C)cc(Nc4cc(C(F)(F)F)ccn4)n3)s2)CC1 (relative stereo) [Example 14-27, methyl trans-4-{hydroxy[5-(4-methyl-6-{[4-(trifluoromethyl)pyridin-2-yl]amino}pyridin-2-yl)-1,3-thiazol-2-yl]methyl}cyclohexanecarboxylate] the IC50 [1] was ≤ 100 nM.

For COc1ccnc(Nc2cccc(-c3cnc(C(C)(O)[C@H]4CC[C@H](C(=O)O)CC4)s3)n2)c1 (relative stereo) [Example 14-41, trans-4-[1-hydroxy-1-(5-{6-[(4-methoxypyridin-2-yl)amino]pyridin-2-yl}-1,3-thiazol-2-yl)ethyl]cyclohexanecarboxylic acid], the IC50 [1] was ≤ 100 nM.

In the case of CC(O)(c1ncc(-c2cccc(Nc3cc(C(F)F)ccn3)n2)s1)[C@H]1CC[C@H](C(=O)O)CC1 (relative stereo) [Example 14-42, trans-4-{1-[5-(6-{[4-(difluoromethyl)pyridin-2-yl]amino}pyridin-2-yl)-1,3-thiazol-2-yl]-1-hydroxyethyl}cyclohexanecarboxylic acid], the IC50 [1] is reported as ≤ 100 nM.

With CC(C)c1ccnc(Nc2cccc(-c3cnc(C(C)(O)[C@H]4CC[C@H](C(=O)O)CC4)s3)n2)c1 (relative stereo) [Example 14-43, trans-4-{1-hydroxy-1-[5-(6-{[4-(propan-2-yl)pyridin-2-yl]amino}pyridin-2-yl)-1,3-thiazol-2-yl]ethyl}cyclohexanecarboxylic acid] the IC50 [1] was ≤ 100 nM.

In the case of CCC(O)(c1ncc(-c2cc(C)cc(Nc3cc(C4CC4)ccn3)n2)s1)[C@H]1CC[C@H](C(=O)O)CC1 (single isomer, unassigned) [Example 1, Enantiomer 1, trans-4-[1-(5-{6-[(4-cyclopropylpyridin-2-yl)amino]-4-methylpyridin-2-yl}-1,3-thiazol-2-yl)-1-hydroxypropyl]cyclohexanecarboxylic acid], the IC50 [2] is reported as 2.9 nM and the IC50 [1] is reported as ≤ 100 nM.

CCC(O)(c1ncc(-c2cc(C)cc(Nc3cc(C4CC4)ccn3)n2)s1)[C@H]1CC[C@H](C(N)=O)CC1 (single isomer, unassigned) [Example 2, Enantiomer 1, trans-4-[1-(5-{6-[(4-cyclopropylpyridin-2-yl)amino]-4-methylpyridin-2-yl}-1,3-thiazol-2-yl)-1-hydroxypropyl]cyclohexanecarboxamide] was tested, and the IC50 [1] was ≤ 100 nM.

For Cc1cc(Nc2cccc(-c3cnc(C(C)(O)[C@H]4CC[C@H](C(=O)O)CC4)s3)n2)ncc1F (single isomer, unassigned) [Example 5, trans-4-[(1R or 1S)-1-(5-{6-[(5-Fluoro-4-methylpyridin-2-yl)amino]pyridin-2-yl}-1,3-thiazol-2-yl)-1-hydroxyethyl]cyclohexanecarboxylic acid], the IC50 [1] was ≤ 100 nM.

Cc1cc(Nc2cccc(-c3cnc(C(C)(O)[C@H]4CC[C@H](C(=O)O)CC4)s3)n2)ncc1F (single isomer, unassigned) [Example 6, trans-4-[(1R or 1S)-1-(5-{6-[(5-Fluoro-4-methylpyridin-2-yl)amino]pyridin-2-yl}-1,3-thiazol-2-yl)-1-hydroxyethyl]cyclohexanecarboxylic acid] was tested, and the IC50 [1] was ≤ 100 nM.

With CC(O)(c1ncc(-c2cccc(Nc3cc(C(F)(F)F)ccn3)n2)s1)[C@H]1CC[C@H](C(=O)O)CC1 (single isomer, unassigned) [Example 7, trans-4-{(1R or 1S)-1-hydroxy-1-[5-(6-{[4-(trifluoromethyl)pyridin-2-yl]amino}pyridin-2-yl)-1,3-thiazol-2-yl]ethyl}cyclohexanecarboxylic acid] the IC50 [1] was ≤ 100 nM.

For CC(O)(c1ncc(-c2cccc(Nc3cc(C(F)(F)F)ccn3)n2)s1)[C@H]1CC[C@H](C(=O)O)CC1 (single isomer, unassigned) [Example 8, trans-4-{(1R or 1S)-1-Hydroxy-1-[5-(6-{[4-(trifluoromethyl)pyridin-2-yl]amino}pyridin-2-yl)-1,3-thiazol-2-yl]ethyl}cyclohexanecarboxylic acid], the IC50 [1] was ≤ 100 nM.

Compound CCCCOC(=O)[C@H]1CC[C@H]([C@@](C)(O)c2ncc(-c3cc(C)cc(Nc4cc(C)c(F)cn4)n3)s2)CC1 (single isomer, unassigned) [Example 9, Enantiomer 1, butyl trans-4-[1-(5-{6-[(5-fluoro-4-methylpyridine-2-yl)amino]-4-methylpyridine-2-yl}-1,3-thiazol-2-yl)-1-hydroxyethyl]cyclohexanecarboxylate] has an IC50 [2] of 278 nM and an IC50 [1] of 100 to 1000 nM.

In the case of CCCCOC(=O)[C@H]1CC[C@H]([C@@](C)(O)c2ncc(-c3cc(C)cc(Nc4cc(C)c(F)cn4)n3)s2)CC1 (single isomer, unassigned) [Example 9, Enantiomer 2, butyl trans-4-[1-(5-{6-[(5-fluoro-4-methylpyridine-2-yl)amino]-4-methylpyridine-2-yl}-1,3-thiazol-2-yl)-1-hydroxyethyl]cyclohexanecarboxylate], the IC50 [1] is reported as 100 to 1000 nM.

Compound CCCCOC(=O)[C@H]1CC[C@H](C(C)(O)c2ncc(-c3cc(C)cc(Nc4cc(C(F)(F)F)ccn4)n3)s2)CC1 (single isomer, unassigned) [Example 14, Step 1, butyl trans-4-{(1R or 1S)-1-hydroxy-1-[5-(4-methyl-6-{[4-(trifluoromethyl)pyridin-2-yl]amino}pyridin-2-yl)-1,3-thiazol-2-yl]ethyl}cyclohexanecarboxylate] has an IC50 [1] of 100 to 1000 nM.

In the case of Cc1cc(Nc2cc(C(F)F)ccn2)nc(-c2cnc(C(C)(O)[C@H]3CC[C@H](C(=O)O)CC3)s2)c1 (single isomer, unassigned) [Example 14-4, trans-4-{1-[5-(6-{[4-(difluoromethyl)pyridin-2-yl]amino}-4-methylpyridin-2-yl)-1,3-thiazol-2-yl]-1-hydroxyethyl}cyclohexanecarboxylic acid], the IC50 [2] is reported as 0.5 nM and the IC50 [1] is reported as ≤ 100 nM.
